Measured values published in patent US12220467B2, “Highly loaded metal oxide materials by self-assembly for extended biologically active molecule release in medical and dental applications” (MESOSIL INC., priority 2016, dated 2025).
Values after ≈ are worked out from the molar mass of the structure shown. Where a name gives a salt, the structure may show the parent alone. Read-outs that look alike come from different tables or passages of the source.

Columns and labels:
[1] = tested on: murine fibroblasts and test microorganisms (Escherichia coli and Staphylococcus aureus); conditions: cited from earlier work
[2] = tested on: murine fibroblasts; conditions: cited from earlier work
[3] = tested on: mammalian cell; conditions: cited from earlier work
[4] = tested on: S. aureus; conditions: cited from earlier work
[5] = literature values; cited from earlier work
[6] = tested on: E. coli; conditions: cited from earlier work
[7] = tested on: murine fibroblasts and test microorganisms (Escherichia coli and Staphylococcus aureus)
Excerpt: The term “biocompatibility index” is defined by the active agent's effective biological activity and its cytotoxic effect on human or animal cells. […] The biocompatibility index will take into account both the results of the in vitro cytotoxicity, i.e., the concentration at which 50% of the murine fibroblasts are damaged, and the microbial effect, i.e., the concentration at which the baseline burden of the test microorganisms (e.g., Escherichia coli and Staphylococcus aureus) is reduced by at least 3 log 10 (99.9%). A biocompatibility index greater than 1 represent an antibacterial substance with an effective microbicidal activity combined with a relatively low cytotoxicity. […] A biocompatibility index less than 1 indicates an antimicrobial agent with a relatively high cytotoxicity in a defined medium.

[8] = tested on: human keratinocyte; conditions: cited from earlier work
[9] = tested on: S. mutans; test: Antimicrobial studies against S. mutans; format: cell-based
Excerpt: According to an embodiment, the amphiphilic biologically active agent may be a synthetic, natural or derived compound having properties for treating or preventing a disease or illness, including: pharmaceutical drugs, pharmaceutical conjugated drugs, pharmaceutical prodrugs, antimicrobial or antiseptic agents, antifungal agents, peptides, DNA or any combinations thereof, which when introduced into the body causes a desired biological response. According to another embodiment, the amphiphilic biologically active agent may be an active agent with a suitable biocompatibility index. Such biologically active agent may have a biocompatibility index greater than 1. According to another embodiment, the preferred amphiphilic biologically active agent may be an antibacterial agent. According to a further embodiment, the most preferred amphiphilic biologically active agent may be the antibacterial agent OCT. OCT is an amphiphilic antiseptic agent with a biocompatibility index of greater than 1. OCT has shown a broad range of efficacy against gram positive and negative bacteria and is used currently as a mouth rinse, wound cleansing agent, topical antiseptic, and for other applications. The CMC of OCT was determined to be 3.79 mM.

## CCCCCCCCCCCCCCCC[N+](C)(C)C.[Br-] [CTAB, cetyltrimethylammonium bromide]
[1]
  biocompatibility index: less than 1
[2]
  concentration for 50% reduction in murine fibroblasts: 2 µg/mL
[3]
  concentration able to reduce mammalian cell viability: less than 1 μM
[4]
  minimum inhibitory concentration (MIC) against S. aureus: 16 µg/mL

## CCCCCCCCCCCC(=O)N[C@@H](CCCN=C(N)N)C(=O)OCC [LAE, lauric arginate]
[5]
  CMC: 4.9 mM
[6]
  MIC against E. coli: 11.8 µg/mL (≈ 30.7 µM)
[7]
  biocompatibility index: 5.33
[8]
  concentration for 50% reduction of human keratinocyte growth: 63 µg/mL

## CCCCCCCCN=c1ccn(CCCCCCCCCCn2ccc(=NCCCCCCCC)cc2)cc1 [OCT, octenidine dihydrochloride]
[9]
  antimicrobial activity compared with CHX: compared favorably with CHX

## benzalkonium chloride
[1]
  biocompatibility index: 0.79

## polyhexamethylene biguanide [PHMB]
[5]
  CMC: 20 to 50 mM
[1]; reported in literature
  biocompatibility index: 1.36
